# In article PMC10408569, “Recruitment of hexahydroquinoline as anticancer scaffold targeting inhibition of wild and mutants EGFR (EGFR^WT, EGFR^T790M, and EGFR^L858R)” (Journal of Enzyme Inhibition and Medicinal Chemistry, 2023):
# How the values were obtained:
# Test in all cases: NCI-60 anticancer screening (SRB)
# Assay type in all cases: cell-based
# [1] = system: SK-OV-3; conditions: Homo sapiens; SK-OV-3, ovarian cancer; one dose 10 μM; read-out: Growth Inhibition Percentage (GI %)
# [2] = system: MALME-3M; conditions: Homo sapiens, melanoma, one dose 10 μM, read-out: Growth Inhibition Percentage (GI %)
# [3] = system: SW-620; conditions: Homo sapiens; SW-620, colon cancer; one dose 10 μM; read-out: Growth Inhibition Percentage (GI %)
# [4] = system: SN 12C; conditions: Homo sapiens, SN12C; SN 12C, renal cancer; one dose 10 μM; read-out: Growth Inhibition Percentage (GI %)
# [5] = system: KM 12; conditions: Homo sapiens, KM12; KM 12, colon cancer; one dose 10 μM; read-out: Growth Inhibition Percentage (GI %)
# [6] = system: EKVX; conditions: Homo sapiens, NSC lung cancer, one dose 10 μM, read-out: Growth Inhibition Percentage (GI %)
# [7] = system: OVCAR-5; conditions: Homo sapiens; OVCAR-5, ovarian cancer; one dose 10 μM; read-out: Growth Inhibition Percentage (GI %)
# [8] = system: BT-549; conditions: Homo sapiens; BT-549, breast cancer; one dose 10 μM; read-out: Growth Inhibition Percentage (GI %)
# [9] = system: LOX IMVI; conditions: Homo sapiens, melanoma, one dose 10 μM, read-out: Growth Inhibition Percentage (GI %)
# [10] = system: OVCAR-4; conditions: Homo sapiens; OVCAR-4, ovarian cancer; one dose 10 μM; read-out: Growth Inhibition Percentage (GI %)
# [11] = system: NCI-H322M; conditions: Homo sapiens, NSC lung cancer, one dose 10 μM, read-out: Growth Inhibition Percentage (GI %)
# [12] = system: SK-MEL-28; conditions: Homo sapiens; SK-MEL-28, melanoma; one dose 10 μM; read-out: Growth Inhibition Percentage (GI %)
# [13] = system: A498; conditions: Homo sapiens; A498, renal cancer; one dose 10 μM; read-out: Growth Inhibition Percentage (GI %)
# [14] = system: SR; conditions: Homo sapiens, leukemia, one dose 10 μM, read-out: Growth Inhibition Percentage (GI %)
# [15] = system: TK-10; conditions: Homo sapiens; TK-10, renal cancer; one dose 10 μM; read-out: Growth Inhibition Percentage (GI %)
# [16] = system: SNB-19; conditions: Homo sapiens; SNB-19, CNS cancer; one dose 10 μM; read-out: Growth Inhibition Percentage (GI %)
# [17] = system: T-47D; conditions: Homo sapiens, T47D, breast cancer, one dose 10 μM, read-out: Growth Inhibition Percentage (GI %)
# [18] = system: SNB-75; conditions: Homo sapiens; SNB-75, CNS cancer; one dose 10 μM; read-out: Growth Inhibition Percentage (GI %)
# [19] = system: RPMI-8226; conditions: Homo sapiens; RPMI-8226, leukemia; one dose 10 μM; read-out: Growth Inhibition Percentage (GI %)
# [20] = system: 786-0; conditions: Homo sapiens; 786-0, renal cancer; one dose 10 μM; read-out: Growth Inhibition Percentage (GI %)
# [21] = system: CAKI-1; conditions: Homo sapiens; CAKI-1, renal cancer; one dose 10 μM; read-out: Growth Inhibition Percentage (GI %)
# [22] = system: MDA-MB-231; conditions: Homo sapiens; MDA-MB-231, breast cancer; one dose 10 μM; read-out: Growth Inhibition Percentage (GI %)
# [23] = system: NCI-H226; conditions: Homo sapiens; NCI-H226, NSC lung cancer; one dose 10 μM; read-out: Growth Inhibition Percentage (GI %)
# [24] = system: CCRF-CEM; conditions: Homo sapiens, leukemia, one dose 10 μM, read-out: Growth Inhibition Percentage (GI %)
# [25] = system: MDA-MB-468; conditions: Homo sapiens; MDA-MB-468, breast cancer; one dose 10 μM; read-out: Growth Inhibition Percentage (GI %)
# [26] = system: OVCAR-3; conditions: Homo sapiens; OVCAR-3, ovarian cancer; one dose 10 μM; read-out: Growth Inhibition Percentage (GI %)
# [27] = system: A549/ATCC; conditions: Homo sapiens; A549/ATCC, NSC lung cancer; one dose 10 μM; read-out: Growth Inhibition Percentage (GI %)
# [28] = system: SK-MEL-2; conditions: Homo sapiens; SK-MEL-2, melanoma; one dose 10 μM; read-out: Growth Inhibition Percentage (GI %)
# [29] = system: U251; conditions: Homo sapiens, U-251; U251, CNS cancer; one dose 10 μM; read-out: Growth Inhibition Percentage (GI %)
# [30] = system: ACHN; conditions: Homo sapiens, renal cancer, one dose 10 μM, read-out: Growth Inhibition Percentage (GI %)
# [31] = system: HOP-92; conditions: Homo sapiens; HOP-92, NSC lung cancer; one dose 10 μM; read-out: Growth Inhibition Percentage (GI %)
# [32] = system: SK-MEL-5; conditions: Homo sapiens; SK-MEL-5, melanoma; one dose 10 μM; read-out: Growth Inhibition Percentage (GI %)
# [33] = system: HCC-2998; conditions: Homo sapiens; HCC-2998, colon cancer; one dose 10 μM; read-out: Growth Inhibition Percentage (GI %)
Compound,inhibition at 10 µM [1],inhibition at 10 µM [2],inhibition at 10 µM [3],inhibition at 10 µM [4],inhibition at 10 µM [5],inhibition at 10 µM [6],inhibition at 10 µM [7],inhibition at 10 µM [8],inhibition at 10 µM [9],inhibition at 10 µM [10],inhibition at 10 µM [11],inhibition at 10 µM [12],inhibition at 10 µM [13],inhibition at 10 µM [14],inhibition at 10 µM [15],inhibition at 10 µM [16],inhibition at 10 µM [17],inhibition at 10 µM [18],inhibition at 10 µM [19],inhibition at 10 µM [20],further results
"CCOC(=O)C1=C(N)N(c2ccccc2)C2=C(C(=O)CC(C)(C)C2)C1c1cccc(Cl)c1Cl (racemic) [10a, (±)-Ethyl 2-amino-4–(2,3-dichlorophenyl)-7,7-dimethyl-5-oxo-1-phenyl-1,4,5,6,7,8-hexahydroquinoline-3-carboxylate]",18%,19%,< 10%,37%,23%,42%,12%,31%,22%,34%,22%,< 10%,< 10%,44%,< 10%,58%,28%,43%,49%,42%,inhibition at 10 µM [21]: 53%; inhibition at 10 µM [22]: 40%; inhibition at 10 µM [23]: 60%; inhibition at 10 µM [24]: 45%; inhibition at 10 µM [25]: 52%; inhibition at 10 µM [26]: 13%; inhibition at 10 µM [27]: 39%; inhibition at 10 µM [28]: 41%; inhibition at 10 µM [29]: 45%; inhibition at 10 µM [30]: 42%; inhibition at 10 µM [31]: 101%; inhibition at 10 µM [32]: 22%; inhibition at 10 µM [33]: 13%
"CCOC(=O)C1=C(N)N(c2ccc(Cl)cc2)C2=C(C(=O)CC(C)(C)C2)C1c1cccc(Cl)c1Cl (racemic) [10b, (±)-Ethyl 2-amino-1–(4-chorophenyl)-4–(2,3-dichlorophenyl)-7,7-dimethyl-5-oxo-1-phenyl-1,4,5,6,7,8-hexahydroquinoline-3-carboxylate]",13%,20%,< 10%,35%,49%,58%,< 10%,31%,< 10%,28%,< 10%,16%,< 10%,66%,< 10%,22%,41%,22%,73%,22%,inhibition at 10 µM [21]: 53%; inhibition at 10 µM [22]: 33%; inhibition at 10 µM [23]: 42%; inhibition at 10 µM [24]: 64%; inhibition at 10 µM [25]: 68%; inhibition at 10 µM [26]: 44%; inhibition at 10 µM [27]: 34%; inhibition at 10 µM [28]: 20%; inhibition at 10 µM [29]: 22%; inhibition at 10 µM [30]: 54%; inhibition at 10 µM [31]: 30%; inhibition at 10 µM [32]: 40%; inhibition at 10 µM [33]: 18%
"CCOC(=O)C1=C(N)N(c2ccccc2)C2=C(C(=O)CC(C)(C)C2)C1c1ccc(N2CCOCC2)cc1 (racemic) [8l, (±)-Ethyl 2-amino-7,7-dimethyl-4-[4-(morpholin-4-yl)phenyl]-5-oxo-1-phenyl-1,4,5,6,7,8-hexahydroquinoline-3-carboxylate]",< 10%,< 10%,< 10%,< 10%,< 10%,< 10%,< 10%,< 10%,< 10%,< 10%,< 10%,< 10%,< 10%,16%,< 10%,< 10%,< 10%,< 10%,< 10%,16%,inhibition at 10 µM [21]: 18%; inhibition at 10 µM [22]: < 10%; inhibition at 10 µM [23]: < 10%; inhibition at 10 µM [24]: < 10%; inhibition at 10 µM [25]: < 10%; inhibition at 10 µM [26]: < 10%; inhibition at 10 µM [27]: < 10%; inhibition at 10 µM [28]: < 10%; inhibition at 10 µM [29]: < 10%; inhibition at 10 µM [30]: < 10%; inhibition at 10 µM [31]: 12%; inhibition at 10 µM [32]: < 10%; inhibition at 10 µM [33]: < 10%
"CCOC(=O)C1=C(N)N(c2ccc(Cl)cc2)C2=C(C(=O)CC(C)(C)C2)C1c1ccccc1Br (racemic) [6f, (±)-Ethyl 2-amino-4–(2-bromophenyl)-1–(4-chlorophenyl)-7,7-dimethyl-5-oxo-1,4,5,6,7,8-hexahydroquinoline-3-carboxylate]",< 10%,18%,38%,13%,40%,25%,< 10%,27%,< 10%,25%,< 10%,< 10%,< 10%,< 10%,22%,11%,49%,16%,< 10%,12%,inhibition at 10 µM [21]: 32%; inhibition at 10 µM [22]: 15%; inhibition at 10 µM [23]: 14%; inhibition at 10 µM [24]: 33%; inhibition at 10 µM [25]: 53%; inhibition at 10 µM [26]: 31%; inhibition at 10 µM [27]: 31%; inhibition at 10 µM [28]: < 10%; inhibition at 10 µM [29]: 40%; inhibition at 10 µM [30]: 20%; inhibition at 10 µM [31]: 13%; inhibition at 10 µM [32]: 79%; inhibition at 10 µM [33]: < 10%
